Assay results: the kinase profiling compilation of Christmann-Franck et al. (2016)

What was measured:
Test in all cases: KINOMEscan competition binding
RET (human) = RET (human) (UniProt P07949); details: compound 1.0 µM
PRKACA (human) = PRKACA (human) (UniProt P17612); details: compound 1.0 µM
[1] = tested on: EGFR (human), P00533 [A750P; 747-749 del]; details: compound 1.0 µM
PRKD2 (human) = PRKD2 (human) (UniProt Q9BZL6); details: compound 1.0 µM
PRKCH (human) = PRKCH (human) (UniProt P24723); details: compound 1.0 µM
WEE1 (human) = WEE1 (human) (UniProt P30291); details: compound 1.0 µM
DAPK2 (human) = DAPK2 (human) (UniProt Q9UIK4); details: compound 1.0 µM
MKNK1 (human) = MKNK1 (human) (UniProt Q9BUB5); details: compound 1.0 µM
MAP2K1 (human) = MAP2K1 (human) (UniProt Q02750); details: compound 1.0 µM
ZAP70 (human) = ZAP70 (human) (UniProt P43403); details: compound 1.0 µM
FGR (human) = FGR (human) (UniProt P09769); details: compound 1.0 µM
PLK4 (human) = PLK4 (human) (UniProt O00444); details: compound 1.0 µM
BTK (human) = BTK (human) (UniProt Q06187); details: compound 1.0 µM
PIK3CG (human) = PIK3CG (human) (UniProt P48736); details: compound 1.0 µM
[2] = tested on: FLT3 (human), P36888 [ITD]; details: compound 1.0 µM
MAP3K10 (human) = MAP3K10 (human) (UniProt Q02779); details: compound 1.0 µM
RPS6KA2 KD2 (human) = RPS6KA2 KD2 (human) (UniProt Q15349); details: compound 1.0 µM
FRK (human) = FRK (human) (UniProt P42685); details: compound 1.0 µM
CSNK1D (human) = CSNK1D (human) (UniProt P48730); details: compound 1.0 µM
PIM1 (human) = PIM1 (human) (UniProt P11309); details: compound 1.0 µM
MAPK4 (human) = MAPK4 (human) (UniProt P31152); details: compound 1.0 µM
RIPK1 (human) = RIPK1 (human) (UniProt Q13546); details: compound 1.0 µM
[3] = tested on: PIK3CA (human), P42336 [Q546K]; details: compound 1.0 µM
CSF1R (human) = CSF1R (human) (UniProt P07333); details: compound 1.0 µM
TAOK3 (human) = TAOK3 (human) (UniProt Q9H2K8); details: compound 1.0 µM
CSNK1G3 (human) = CSNK1G3 (human) (UniProt Q9Y6M4); details: compound 1.0 µM
BLK (human) = BLK (human) (UniProt P51451); details: compound 1.0 µM
AKT3 (human) = AKT3 (human) (UniProt Q9Y243); details: compound 1.0 µM
ACVR1 (human) = ACVR1 (human) (UniProt Q04771); details: compound 1.0 µM
MYLK4 (human) = MYLK4 (human) (UniProt Q86YV6); details: for kinase still bound, per cent of control: compound 1.0 µM
PRKG1 (human) = PRKG1 (human) (UniProt Q13976); details: compound 1.0 µM
[4] = tested on: EIF2AK4 KD2 (human), Q9P2K8 [S808G]; details: compound 1.0 µM
STK24 (human) = STK24 (human) (UniProt Q9Y6E0); details: compound 1.0 µM
CSNK1G1 (human) = CSNK1G1 (human) (UniProt Q9HCP0); details: compound 1.0 µM
DAPK1 (human) = DAPK1 (human) (UniProt P53355); details: compound 1.0 µM
[5] = tested on: FLT3 (human), P36888 [D835Y]; details: compound 1.0 µM
HCK (human) = HCK (human) (UniProt P08631); details: compound 1.0 µM
TEK (human) = TEK (human) (UniProt Q02763); details: compound 1.0 µM
MYLK2 (human) = MYLK2 (human) (UniProt Q9H1R3); details: compound 1.0 µM
PIP4K2C (human) = PIP4K2C (human) (UniProt Q8TBX8); details: for kinase still bound, per cent of control: compound 1.0 µM
TAOK2 (human) = TAOK2 (human) (UniProt Q9UL54); details: compound 1.0 µM
ACVR1B (human) = ACVR1B (human) (UniProt P36896); details: compound 1.0 µM

Sequence of PIP4K2C (human) (Q8TBX8 whole entry, looked up): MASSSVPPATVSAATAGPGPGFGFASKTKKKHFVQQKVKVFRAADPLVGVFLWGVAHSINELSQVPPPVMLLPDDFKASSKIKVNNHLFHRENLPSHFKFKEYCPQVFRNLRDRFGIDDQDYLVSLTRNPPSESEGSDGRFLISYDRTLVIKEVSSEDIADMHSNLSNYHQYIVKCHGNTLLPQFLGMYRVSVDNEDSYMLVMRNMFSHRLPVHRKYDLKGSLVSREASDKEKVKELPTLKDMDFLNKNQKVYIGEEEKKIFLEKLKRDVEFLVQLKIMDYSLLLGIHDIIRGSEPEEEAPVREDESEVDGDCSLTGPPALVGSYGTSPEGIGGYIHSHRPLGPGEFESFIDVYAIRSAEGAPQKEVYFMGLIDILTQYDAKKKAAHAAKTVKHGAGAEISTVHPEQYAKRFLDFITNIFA
Sequence of MYLK4 (human) (Q86YV6 whole entry, looked up): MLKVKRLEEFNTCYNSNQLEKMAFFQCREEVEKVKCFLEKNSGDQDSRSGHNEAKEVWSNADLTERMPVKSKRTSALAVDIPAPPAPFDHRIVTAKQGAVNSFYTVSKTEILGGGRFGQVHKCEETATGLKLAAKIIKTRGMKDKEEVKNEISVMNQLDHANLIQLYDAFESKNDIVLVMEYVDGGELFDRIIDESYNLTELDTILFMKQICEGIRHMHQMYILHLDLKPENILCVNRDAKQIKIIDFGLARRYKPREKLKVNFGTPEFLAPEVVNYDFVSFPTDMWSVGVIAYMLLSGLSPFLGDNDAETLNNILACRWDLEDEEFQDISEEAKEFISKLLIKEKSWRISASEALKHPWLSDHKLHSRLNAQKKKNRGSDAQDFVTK
Sequence of PRKD2 (human) (Q9BZL6 whole entry, looked up): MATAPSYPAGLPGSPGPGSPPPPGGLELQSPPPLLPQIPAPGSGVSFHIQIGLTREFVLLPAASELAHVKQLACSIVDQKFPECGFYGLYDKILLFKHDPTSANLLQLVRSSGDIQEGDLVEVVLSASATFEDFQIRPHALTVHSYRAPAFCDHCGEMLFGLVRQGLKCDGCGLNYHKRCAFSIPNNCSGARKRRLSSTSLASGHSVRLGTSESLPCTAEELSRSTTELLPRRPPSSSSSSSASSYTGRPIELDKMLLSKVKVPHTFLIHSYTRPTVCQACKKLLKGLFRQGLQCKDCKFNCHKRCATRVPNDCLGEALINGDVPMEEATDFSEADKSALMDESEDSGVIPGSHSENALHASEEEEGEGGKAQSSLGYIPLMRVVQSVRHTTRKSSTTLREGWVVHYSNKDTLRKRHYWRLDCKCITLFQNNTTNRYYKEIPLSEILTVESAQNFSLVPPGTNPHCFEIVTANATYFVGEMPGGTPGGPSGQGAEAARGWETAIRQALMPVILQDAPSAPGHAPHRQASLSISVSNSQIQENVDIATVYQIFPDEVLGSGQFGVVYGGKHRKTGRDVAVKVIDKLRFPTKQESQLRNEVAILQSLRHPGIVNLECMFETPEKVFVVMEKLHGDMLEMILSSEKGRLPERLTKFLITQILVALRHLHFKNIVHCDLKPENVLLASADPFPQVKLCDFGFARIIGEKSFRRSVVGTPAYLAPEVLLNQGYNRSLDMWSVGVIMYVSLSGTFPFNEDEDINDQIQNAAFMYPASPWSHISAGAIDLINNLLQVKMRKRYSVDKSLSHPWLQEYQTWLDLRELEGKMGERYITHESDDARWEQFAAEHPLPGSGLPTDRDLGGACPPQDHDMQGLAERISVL
Sequence of MAP3K10 (human) (Q02779 whole entry, looked up): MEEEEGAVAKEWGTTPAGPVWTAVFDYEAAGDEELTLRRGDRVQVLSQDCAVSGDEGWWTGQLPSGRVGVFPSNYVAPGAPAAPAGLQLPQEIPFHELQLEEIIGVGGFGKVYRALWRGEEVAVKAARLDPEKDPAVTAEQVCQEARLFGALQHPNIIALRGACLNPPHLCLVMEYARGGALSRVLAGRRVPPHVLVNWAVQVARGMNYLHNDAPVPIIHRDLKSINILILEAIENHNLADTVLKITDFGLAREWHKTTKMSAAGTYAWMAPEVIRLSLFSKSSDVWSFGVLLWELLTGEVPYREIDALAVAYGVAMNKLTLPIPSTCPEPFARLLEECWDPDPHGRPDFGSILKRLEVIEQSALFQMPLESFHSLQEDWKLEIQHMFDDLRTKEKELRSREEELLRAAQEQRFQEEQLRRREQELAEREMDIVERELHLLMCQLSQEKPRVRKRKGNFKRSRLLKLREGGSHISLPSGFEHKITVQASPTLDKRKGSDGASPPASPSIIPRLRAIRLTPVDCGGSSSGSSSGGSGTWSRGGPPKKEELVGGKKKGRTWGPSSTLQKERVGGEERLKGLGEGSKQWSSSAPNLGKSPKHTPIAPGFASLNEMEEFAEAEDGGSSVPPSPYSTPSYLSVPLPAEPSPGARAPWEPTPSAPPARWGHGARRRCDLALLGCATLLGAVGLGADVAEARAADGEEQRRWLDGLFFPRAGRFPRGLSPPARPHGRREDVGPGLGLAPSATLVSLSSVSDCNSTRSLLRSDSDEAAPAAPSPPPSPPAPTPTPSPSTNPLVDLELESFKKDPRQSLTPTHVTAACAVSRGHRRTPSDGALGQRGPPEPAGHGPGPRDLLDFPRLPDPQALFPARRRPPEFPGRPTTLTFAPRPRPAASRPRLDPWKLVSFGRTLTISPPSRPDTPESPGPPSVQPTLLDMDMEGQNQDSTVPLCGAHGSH
Sequence of AKT3 (human) (Q9Y243 whole entry, looked up): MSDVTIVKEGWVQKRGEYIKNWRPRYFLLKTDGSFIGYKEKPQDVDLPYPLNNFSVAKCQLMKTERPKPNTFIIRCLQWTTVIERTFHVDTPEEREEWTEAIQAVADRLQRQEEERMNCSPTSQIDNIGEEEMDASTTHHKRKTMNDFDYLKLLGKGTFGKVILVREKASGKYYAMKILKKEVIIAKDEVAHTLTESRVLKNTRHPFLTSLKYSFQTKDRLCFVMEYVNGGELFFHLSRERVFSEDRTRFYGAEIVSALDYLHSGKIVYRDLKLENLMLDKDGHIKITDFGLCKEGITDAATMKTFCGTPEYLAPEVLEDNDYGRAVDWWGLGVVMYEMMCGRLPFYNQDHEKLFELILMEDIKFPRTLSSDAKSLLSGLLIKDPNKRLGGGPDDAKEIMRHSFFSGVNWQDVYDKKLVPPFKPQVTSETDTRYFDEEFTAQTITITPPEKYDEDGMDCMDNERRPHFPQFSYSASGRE
Sequence of EIF2AK4 KD2 (human), Q9P2K8 [S808G] (Q9P2K8 whole entry S808G, looked up): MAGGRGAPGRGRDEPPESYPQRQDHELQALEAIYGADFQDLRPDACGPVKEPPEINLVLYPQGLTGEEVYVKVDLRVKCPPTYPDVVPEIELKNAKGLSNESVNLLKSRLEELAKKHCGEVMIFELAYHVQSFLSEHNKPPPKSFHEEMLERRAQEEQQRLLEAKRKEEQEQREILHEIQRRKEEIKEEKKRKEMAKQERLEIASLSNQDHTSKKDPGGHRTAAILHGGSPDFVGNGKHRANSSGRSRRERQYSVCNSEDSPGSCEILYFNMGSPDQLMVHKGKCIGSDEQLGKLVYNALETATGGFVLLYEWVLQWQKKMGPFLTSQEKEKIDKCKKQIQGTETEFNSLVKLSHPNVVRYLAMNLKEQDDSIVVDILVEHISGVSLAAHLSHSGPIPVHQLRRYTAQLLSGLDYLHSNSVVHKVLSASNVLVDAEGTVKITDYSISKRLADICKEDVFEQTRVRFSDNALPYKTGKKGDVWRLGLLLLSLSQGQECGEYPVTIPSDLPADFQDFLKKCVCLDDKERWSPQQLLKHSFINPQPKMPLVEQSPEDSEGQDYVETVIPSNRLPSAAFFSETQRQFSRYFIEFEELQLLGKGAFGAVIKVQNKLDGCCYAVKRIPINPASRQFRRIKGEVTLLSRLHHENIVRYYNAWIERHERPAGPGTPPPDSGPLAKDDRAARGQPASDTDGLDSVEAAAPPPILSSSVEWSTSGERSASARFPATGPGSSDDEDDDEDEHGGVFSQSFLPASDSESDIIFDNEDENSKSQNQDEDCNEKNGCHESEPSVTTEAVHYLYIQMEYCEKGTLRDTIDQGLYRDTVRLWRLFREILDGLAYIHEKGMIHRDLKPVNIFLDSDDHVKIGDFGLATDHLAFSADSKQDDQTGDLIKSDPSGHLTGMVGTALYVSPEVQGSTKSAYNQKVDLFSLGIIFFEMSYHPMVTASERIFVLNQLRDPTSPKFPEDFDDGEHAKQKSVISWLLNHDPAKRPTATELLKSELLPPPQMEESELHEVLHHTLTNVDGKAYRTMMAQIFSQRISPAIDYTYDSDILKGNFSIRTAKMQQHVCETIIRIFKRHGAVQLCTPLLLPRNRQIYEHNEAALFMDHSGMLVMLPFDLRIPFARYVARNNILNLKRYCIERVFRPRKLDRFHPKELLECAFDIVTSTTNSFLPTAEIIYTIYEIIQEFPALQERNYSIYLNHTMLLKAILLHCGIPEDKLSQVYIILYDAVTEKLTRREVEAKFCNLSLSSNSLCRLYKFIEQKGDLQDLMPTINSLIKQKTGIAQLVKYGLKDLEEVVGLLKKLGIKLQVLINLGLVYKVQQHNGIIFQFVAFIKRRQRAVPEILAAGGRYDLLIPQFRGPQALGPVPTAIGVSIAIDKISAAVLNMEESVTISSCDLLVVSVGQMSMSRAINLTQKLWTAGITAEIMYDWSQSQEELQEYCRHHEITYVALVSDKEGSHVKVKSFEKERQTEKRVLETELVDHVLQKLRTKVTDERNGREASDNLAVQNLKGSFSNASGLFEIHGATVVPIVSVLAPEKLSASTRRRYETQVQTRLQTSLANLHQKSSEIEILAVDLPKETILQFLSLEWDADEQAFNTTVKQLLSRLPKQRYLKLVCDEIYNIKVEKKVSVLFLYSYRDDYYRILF

`Cc1cc(NC(=O)c2cccc(NC(=O)/C=C/CN(C)C)c2)ccc1Nc1nccc(-c2cccnc2)n1` showed a kinase still bound, per cent of control (RET (human)) of 100%, a kinase still bound, per cent of control (PRKACA (human)) of 100% and a kinase still bound, per cent of control [1] of 84%. For the same compound, the kinase still bound, per cent of control (PRKD2 (human)) was 100%, the kinase still bound, per cent of control (PRKCH (human)) was 94% and the kinase still bound, per cent of control (WEE1 (human)) was 100%. It also gave a kinase still bound, per cent of control (DAPK2 (human)) of 77%, a kinase still bound, per cent of control (MKNK1 (human)) of 81% and a kinase still bound, per cent of control (MAP2K1 (human)) of 94%. The kinase still bound, per cent of control (ZAP70 (human)) was 79%, the kinase still bound, per cent of control (FGR (human)) was 100% and the kinase still bound, per cent of control (PLK4 (human)) was 58%. The kinase still bound, per cent of control (BTK (human)) was 100%, the kinase still bound, per cent of control (PIK3CG (human)) was 100% and the kinase still bound, per cent of control [2] was 50%. For the same compound, the kinase still bound, per cent of control (MAP3K10 (human)) was 87%, the kinase still bound, per cent of control (RPS6KA2 KD2 (human)) was 100% and the kinase still bound, per cent of control (FRK (human)) was 100%. The kinase still bound, per cent of control (CSNK1D (human)) was 18%, the kinase still bound, per cent of control (PIM1 (human)) was 100% and the kinase still bound, per cent of control (MAPK4 (human)) was 81%. It also gave a kinase still bound, per cent of control (RIPK1 (human)) of 51%, a kinase still bound, per cent of control [3] of 100% and a kinase still bound, per cent of control (CSF1R (human)) of 8.6%. The kinase still bound, per cent of control (TAOK3 (human)) was 66%, the kinase still bound, per cent of control (CSNK1G3 (human)) was 100% and the kinase still bound, per cent of control (BLK (human)) was 65%. It also gave a kinase still bound, per cent of control (AKT3 (human)) of 100%, a kinase still bound, per cent of control (ACVR1 (human)) of 100% and a Kd (MYLK4 (human)) of 4 µM. It also gave a kinase still bound, per cent of control (MYLK4 (human)) of 9.6%, a kinase still bound, per cent of control (PRKG1 (human)) of 72% and a kinase still bound, per cent of control [4] of 100%. The kinase still bound, per cent of control (STK24 (human)) was 79%, the kinase still bound, per cent of control (CSNK1G1 (human)) was 100% and the kinase still bound, per cent of control (DAPK1 (human)) was 100%. For the same compound, the kinase still bound, per cent of control [5] was 58%, the kinase still bound, per cent of control (HCK (human)) was 100% and the kinase still bound, per cent of control (TEK (human)) was 76%. It also gave a kinase still bound, per cent of control (MYLK2 (human)) of 13%, a kinase still bound, per cent of control (PIP4K2C (human)) of 46% and a kinase still bound, per cent of control (TAOK2 (human)) of 73%. It also gave a kinase still bound, per cent of control (ACVR1B (human)) of 88%.
`CN(C)C/C=C/C(=O)Nc1cccc(C(=O)Nc2ccc(Nc3nccc(-c4cccnc4)n3)cc2)c1` showed a kinase still bound, per cent of control (RET (human)) of 100%, a kinase still bound, per cent of control (PRKACA (human)) of 83% and a kinase still bound, per cent of control [1] of 87%. For the same compound, the kinase still bound, per cent of control (PRKD2 (human)) was 100%, the kinase still bound, per cent of control (PRKCH (human)) was 84% and the kinase still bound, per cent of control (WEE1 (human)) was 84%. It also gave a kinase still bound, per cent of control (DAPK2 (human)) of 75%, a kinase still bound, per cent of control (MKNK1 (human)) of 100% and a kinase still bound, per cent of control (MAP2K1 (human)) of 46%. It also gave a kinase still bound, per cent of control (ZAP70 (human)) of 100%, a kinase still bound, per cent of control (FGR (human)) of 69% and a kinase still bound, per cent of control (PLK4 (human)) of 52%. It also gave a kinase still bound, per cent of control (BTK (human)) of 76%, a kinase still bound, per cent of control (PIK3CG (human)) of 21% and a kinase still bound, per cent of control [2] of 16%. It also gave a kinase still bound, per cent of control (MAP3K10 (human)) of 65%, a kinase still bound, per cent of control (RPS6KA2 KD2 (human)) of 92% and a kinase still bound, per cent of control (FRK (human)) of 90%. For the same compound, the kinase still bound, per cent of control (CSNK1D (human)) was 5.6%, the kinase still bound, per cent of control (PIM1 (human)) was 94% and the kinase still bound, per cent of control (MAPK4 (human)) was 11%. For the same compound, the kinase still bound, per cent of control (RIPK1 (human)) was 18%, the kinase still bound, per cent of control [3] was 100% and the kinase still bound, per cent of control (CSF1R (human)) was 52%. It also gave a kinase still bound, per cent of control (TAOK3 (human)) of 94%, a kinase still bound, per cent of control (CSNK1G3 (human)) of 66% and a kinase still bound, per cent of control (BLK (human)) of 100%. The kinase still bound, per cent of control (AKT3 (human)) was 100%, the kinase still bound, per cent of control (ACVR1 (human)) was 70% and the kinase still bound, per cent of control (MYLK4 (human)) was 34%. It also gave a kinase still bound, per cent of control (PRKG1 (human)) of 100%, a kinase still bound, per cent of control [4] of 80% and a kinase still bound, per cent of control (STK24 (human)) of 86%. The kinase still bound, per cent of control (CSNK1G1 (human)) was 69%, the kinase still bound, per cent of control (DAPK1 (human)) was 63% and the kinase still bound, per cent of control [5] was 13%. For the same compound, the kinase still bound, per cent of control (HCK (human)) was 100%, the kinase still bound, per cent of control (TEK (human)) was 98% and the kinase still bound, per cent of control (MYLK2 (human)) was 35%. The Kd (PIP4K2C (human)) was 0.032 µM, the kinase still bound, per cent of control (PIP4K2C (human)) was 3.3% and the kinase still bound, per cent of control (TAOK2 (human)) was 54%. It also gave a kinase still bound, per cent of control (ACVR1B (human)) of 86%.
